Laboratory results taken from patent publication US5543530A, “4-arylisoindole analgesics” (Ortho Pharmaceutical Corporation, priority 1993, dated 1996).

These compounds were tested on Acetylcholine-Bromide Induced Abdominal Constriction (assay: Mouse Acetylcholine Bromide-Induced Abdominal Constriction Assay). Settings: @10 mpk/ko (so in the source).
Assay type: in vivo
From the text: Mouse Acetylcholine Bromide-Induced Abdominal Constriction Assay
The mouse acetylcholine-induced abdominal constiction assay, as described by Collier et al. in Brit. J. Pharmacol. Chem. Ther., 32:295-310, 1968, with minor modifications was used to assess analgesic potency of the compounds of formula (I). […] The mice were then placed in groups of three into glass bell jars and observed for a ten minute observation period for the occurrence of an abdominal constriction response (defined as a wave of constriction and elongation passing caudally along the abdominal wall, accompanied by a twisting of the trunk and followed by extension of the hind limbs). The percent inhibition of this response to a nociceptive stimulus (equated to % analgesia) was calculated as follows: The % Inhibition of response, i.e., % analgesia is equal to the difference between the No. of control animals response and the No. of drug-treated animals response times 100 divided by the No. of control animals responding.
At least 15 animals were used for control and in each of the drug treated groups. At least three doses were used to determine each dose response curve and ED50 (that dose which would produce 50% analgesia). The ED50 values and their 95% fiducial limits were determined by a computer assisted probit analysis.
CN1C[C@@H]2CCC[C@@](O)(c3ccccc3)[C@@H]2C1 (single isomer, unassigned) [Cp-12, (-)-4β-Hydroxy-2-Methyl-4-Phenyl-3aα,7aα-Octahydroisoindole] was tested, and the “% Inhibition” value was 90%.

Same assay, conditions: @10 mpk/po
With CN1C[C@@H]2CCC[C@@](O)(c3ccccc3)[C@@H]2C1 (single isomer, unassigned) [Cp-15, (+)-4β-Hydroxy-2-Methyl-4-phenyl-3aα,7aα-octahydroisoindole] the “% Inhibition” value was 90%.

Same assay, conditions: @30 mpk/po
O[C@@]1(c2cccc(C(F)(F)F)c2)CCC[C@H]2CN(Cc3ccccc3)C[C@H]21 (relative stereo) [Cp-18] was tested, and the “% Inhibition” value was 71%.
With COc1ccc([C@]2(O)CCC[C@H]3CN(C)C[C@H]32)cc1 (relative stereo) [Cp-3] the “% Inhibition” value was 46-93%.

Same assay, conditions: @30 mpk/sc
In the case of COc1cccc([C@]2(O)CCC[C@H]3CN(Cc4ccccc4)C[C@H]32)c1 (relative stereo) [Cp-13], the “% Inhibition” value is reported as 75%.

Same assay, conditions: Mus musculus, 0.5 h; po; 5.5 mg/kg i.p. acetylcholine bromide 30 minutes after drug; read-out: ED50 (dose which would produce 50% analgesia)
O[C@@]1(c2ccc(C(F)(F)F)cc2)CCC[C@H]2CN(Cc3ccccc3)C[C@H]21 (relative stereo) [Cp-20] was tested, and the ED50 was 10.7 mg/kg.
For CN1C[C@@H]2CCC[C@@](O)(c3cccc4ccccc34)[C@@H]2C1 (relative stereo) [Cp-5], the ED50 was 16.6 mg/kg.
Compound CN1C[C@@H]2CCC[C@@](O)(c3cccc(F)c3)[C@@H]2C1 (relative stereo) [Cp-7] has an ED50 of 5.38 mg/kg.
O[C@@]1(c2cccc(C(F)(F)F)c2)CCC[C@H]2CNC[C@H]21 (relative stereo) [Cp-19] gave an ED50 of 4.2 mg/kg.
CN1C[C@@H]2CCC[C@@](O)(c3ccccn3)[C@@H]2C1 (relative stereo) [Cp-9] showed an ED50 of 15.4 mg/kg.
CN1C[C@@H]2CCC[C@@](O)(c3cccs3)[C@@H]2C1 (relative stereo) [Cp-1] gave an ED50 of 7.3 mg/kg.
CN1C[C@@H]2CCC[C@@](O)(c3cccnc3)[C@@H]2C1 (relative stereo) [Cp-6] gave an ED50 of 30.4 mg/kg.
Compound CN1C[C@@H]2CCC[C@@](O)(c3cccc(C(F)(F)F)c3)[C@@H]2C1 (relative stereo) [Cp-8] has an ED50 of 2.08 mg/kg.
In the case of CN1C[C@@H]2CCC[C@@](O)(c3ccccc3)[C@@H]2C1 (relative stereo) [Cp-16], the ED50 is reported as 3.9 mg/kg.
CN1C[C@@H]2CCC[C@@](O)(c3ccc(Cl)cc3Cl)[C@@H]2C1 (relative stereo) [Cp-11] gave an ED50 of 1.36 mg/kg.
CN1C[C@@H]2CCC[C@@](O)(c3ccc(F)cc3)[C@@H]2C1 (relative stereo) [Cp-4] gave an ED50 of 0.76 mg/kg.
